Data reported in PubChem BioAssay (NCI).
“And” between values parts separate entries of the source, which are not always exact repeats. Identical values can stand only once.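 96-well plates; 48 h exposure; 5 concentrations. Endpoints by linear interpolation between flanking doses. Not reached: highest tested concentration assigned. The concentration for 50% growth inhibition is given as GI50. The concentration for full growth arrest is given as TGI.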

Assays:
Assay in all cases: growth of human tumour cells (NCI), 48 h
RXF 393 renal = tested on: RXF 393 renal
EKVX NSCLC = tested on: EKVX NSCLC
CCRF-CEM leukemia = tested on: CCRF-CEM leukemia
RPMI-8226 leukemia = tested on: RPMI-8226 leukemia
KM12 colon = tested on: KM12 colon
HOP-62 NSCLC = tested on: HOP-62 NSCLC
MALME-3M melanoma = tested on: MALME-3M melanoma
HL-60(TB) leukemia = tested on: HL-60(TB) leukemia
LOX IMVI melanoma = tested on: LOX IMVI melanoma
SK-OV-3 ovarian = tested on: SK-OV-3 ovarian

SMILES | GI50 (RXF 393 renal) | TGI (RXF 393 renal) | GI50 (EKVX NSCLC) | TGI (EKVX NSCLC) | GI50 (CCRF-CEM leukemia) | TGI (CCRF-CEM leukemia) | GI50 (RPMI-8226 leukemia) | TGI (RPMI-8226 leukemia) | GI50 (KM12 colon) | TGI (KM12 colon) | GI50 (HOP-62 NSCLC) | TGI (HOP-62 NSCLC) | GI50 (MALME-3M melanoma) | TGI (MALME-3M melanoma) | GI50 (HL-60(TB) leukemia) | TGI (HL-60(TB) leukemia) | GI50 (LOX IMVI melanoma) | TGI (LOX IMVI melanoma) | GI50 (SK-OV-3 ovarian) | TGI (SK-OV-3 ovarian)
CS(=O)(=O)OCCCCOS(C)(=O)=O | 523 µM | 223 µM and > 1000 µM | > 1000 µM | > 1000 µM | 214 µM | 250 µM and > 877 µM | 95.9 µM | 250 µM and > 1000 µM | > 872 µM | > 1000 µM | 492 µM | 244 µM and 983 µM | > 1000 µM | 250 µM and > 1000 µM | 212 µM | 224 µM and 858 µM | 5.96 µM | 248 µM and > 1000 µM | 804 µM | > 1000 µM
C/C(=N\NC(=O)c1cccc(S(=O)(=O)N2CCN(C)CC2)c1)c1cc(Cl)ccc1O | 2.8 µM | 23.9 µM | 0.354 µM | > 63.1 µM | 0.422 µM | > 100 µM | 1.33 µM | > 100 µM | 0.713 µM | > 66.8 µM | 0.461 µM | 37.3 µM | 2.39 µM | 36.6 µM | 0.717 µM | 17.1 µM | 0.518 µM | 13 µM | 0.938 µM | > 54.6 µM
NNC(=O)C(O)C(O)C(O)CO (stereo not given) |  | > 100 µM |  | > 100 µM |  | > 100 µM |  | > 100 µM |  | > 100 µM |  | > 100 µM |  | > 100 µM |  | > 100 µM |  | > 100 µM |  | > 100 µM
O=c1[nH]ccc2nc(N3CCC(O)CC3)nc(Nc3ccc(N4CCOCC4)cc3)c12 | 1.74 µM | 7.5 µM | > 38.3 µM | > 100 µM | 28.3 µM | > 100 µM | > 100 µM | > 100 µM | 0.055 µM | > 100 µM | 5.32 µM | > 100 µM | 1.61 µM | > 63 µM | > 100 µM | > 100 µM | 1.38 µM | > 100 µM | 0.59 µM | > 100 µM
COc1ccc(C2CC(c3ccc4ccccc4c3)=NN2/C=C2\SC(=S)N(NC(=O)Cc3ccccc3Nc3c(Cl)cccc3Cl)C2=O)cc1 (stereo not given) | 0.282 µM | 1.16 µM | 1.45 µM | > 61.5 µM | 0.239 µM | > 100 µM | 0.309 µM | 1.78 µM | 0.37 µM | > 33.5 µM | 0.958 µM | > 49.9 µM | 1.34 µM | > 49 µM | 0.404 µM | 2.89 µM | 0.556 µM | > 54 µM | 0.847 µM | > 100 µM
O=C(CC(O)c1cccnc1)CC(O)c1cccnc1 (stereo not given) |  | 32.1 µM |  | 43.8 µM |  | 20.9 µM |  | > 100 µM |  | 26.7 µM |  | 50.8 µM |  | 39.9 µM |  | > 100 µM |  | 15.4 µM |  | 32.6 µM
OCCNC(=S)Nc1ccc(-c2nc(N3C[C@H]4CC[C@@H](C3)O4)c3cccn3n2)cc1 | < 0.0135 µM | 0.131 µM | 0.0629 µM | 6.59 µM | 0.153 µM | > 40.6 µM | 0.0371 µM | 1.47 µM | 0.0987 µM | 12.6 µM | 0.0324 µM | 0.662 µM | < 0.01 µM | 0.055 µM | 1.22 µM | > 32.5 µM | 0.202 µM | 7.65 µM | 0.0162 µM | 0.104 µM
COC(=O)c1ccc(CS(=O)(=O)c2ccccc2)cc1 |  | > 100 µM |  | > 100 µM |  | > 100 µM |  | > 100 µM |  | > 100 µM |  | > 100 µM |  | > 100 µM |  | > 100 µM |  | > 100 µM |  | > 100 µM
Cc1ccccc1NC(=O)N/C(N)=N/c1nc(C)c(C)s1 | 0.187 µM | 0.907 µM | 0.542 µM | > 100 µM | 0.243 µM | > 100 µM | 0.39 µM | > 100 µM | 0.206 µM | > 100 µM | 0.404 µM | > 65.6 µM | 3.54 µM | > 100 µM | 0.235 µM | > 100 µM | 0.444 µM | > 100 µM | 0.596 µM | > 100 µM
CN(C)c1ccc(/C=N/NC(=O)CSc2nc3sc4c(c3c(=O)n2-c2ccccc2)CCCCC4)cc1 | 3.43 µM | 15.2 µM | 7.08 µM | > 100 µM | 5.82 µM | > 100 µM | > 100 µM | > 100 µM | > 100 µM | > 100 µM | 3.21 µM | 20.2 µM | 3.45 µM | > 100 µM | > 100 µM | > 100 µM | 3.05 µM | > 100 µM | 11.3 µM | 51 µM
O=C1C[C@@H]2[C@@H](C=CC23CC3)N1O |  | > 100 µM |  | > 100 µM |  | > 100 µM |  | > 100 µM |  | > 100 µM |  | > 100 µM |  | > 100 µM |  | > 100 µM |  | > 100 µM |  | > 100 µM
Cc1ccc2oc(=O)cc(CC(=O)O)c2c1 |  | > 100 µM |  | > 100 µM |  | > 100 µM |  | > 100 µM |  | > 100 µM |  | > 100 µM |  | > 100 µM |  | > 100 µM |  | > 100 µM |  | > 100 µM
S=P(C1CCCCC1)(C1CCCCC1)C(c1cccnc1)N1CCCC1 (stereo not given) |  | 33.4 µM |  | 41.7 µM |  | 36.3 µM |  | 38.3 µM |  | 33.4 µM |  | 36.2 µM |  | 39.9 µM |  | 37 µM |  | 23.6 µM |  | > 100 µM
